The source of these data is PubChem BioAssay (NCI).

Among the test systems are SF-295 CNS; MDA-MB-231 breast; NCI/ADR-RES ovarian; 786-0 renal; SR leukemia; HOP-92 NSCLC; BT-549 breast; U251 CNS; SN12C renal; A498 renal.
Holding throughout (assay): NCI anticancer screen, dose series, 48 h

The structures appear in SMILES notation.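 The compound was tested at five concentrations on cells cultured in 96-well plates, with a 48-hour exposure period. TGI denotes the concentration required for complete inhibition of growth.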

`Cc1ccc(/C=C2\N=C(N3CCCC(CO)C3)NC2=O)cc1` (stereo unspecified): the TGI in the assay with SF-295 CNS, in the assay with MDA-MB-231 breast, in the assay with NCI/ADR-RES ovarian, in the assay on 786-0 renal, with SR leukemia and in the assay with HOP-92 NSCLC was greater than 100 µM in each case. Also, the TGI with BT-549 breast, in the assay with U251 CNS and with SN12C renal was greater than 100 µM each time.
As for `Cc1cc2ccc(N)nc2[nH]c1=O`, the TGI in the assay on SF-295 CNS, with MDA-MB-231 breast, with NCI/ADR-RES ovarian, with 786-0 renal, in the assay on SR leukemia and in the assay with HOP-92 NSCLC was greater than 100 µM in each case. For the same compound, the TGI in the assay on BT-549 breast, in the assay on U251 CNS and with SN12C renal was greater than 100 µM each time.
For `O=S(=O)(O)c1ccc2c(N=Nc3ccc(Sc4ccc(N=Nc5c(O)ccc6cc(S(=O)(=O)O)ccc56)cc4)cc3)c(O)ccc2c1`, the TGI with SF-295 CNS, in the assay with MDA-MB-231 breast, in the assay on NCI/ADR-RES ovarian, in the assay on 786-0 renal, in the assay with SR leukemia and with HOP-92 NSCLC was greater than 100 µM throughout. Further, the TGI in the assay with BT-549 breast, with U251 CNS and in the assay with SN12C renal was greater than 100 µM throughout.
Take `O=c1[nH]c2ccc([N+](=O)[O-])cc2nc1/C=C(\O)c1ccccc1`: the TGI in the assay on SF-295 CNS is greater than 100 µM; with MDA-MB-231 breast it was 15.3 µM; in the assay on NCI/ADR-RES ovarian, 81.5 µM; in the assay on 786-0 renal, 20.6 µM; in the assay on SR leukemia it was greater than 100 µM; in the assay on BT-549 breast, greater than 100 µM. Besides, the TGI with U251 CNS stood at 30.3 µM; with A498 renal it was 47.4 µM; in the assay on SN12C renal it was 59.5 µM.
Turning to `COC(=O)c1cc(/C=C\c2cc(OC)ccc2OC)ccc1OC`, the TGI with SF-295 CNS, in the assay with MDA-MB-231 breast, in the assay on NCI/ADR-RES ovarian, with 786-0 renal, in the assay with SR leukemia and with BT-549 breast was greater than 100 µM in each case. Further, the TGI in the assay with U251 CNS, in the assay on A498 renal and in the assay on SN12C renal was greater than 100 µM each time.
Regarding `C(#Cc1ccccc1)SC1=C(c2ccccc2)S/C(=C(\SC#Cc2ccccc2)c2ccccc2)S1`, the TGI in the assay on SF-295 CNS, with MDA-MB-231 breast, in the assay on NCI/ADR-RES ovarian, in the assay on 786-0 renal, with SR leukemia and in the assay with HOP-92 NSCLC was greater than 100 µM throughout. For the same compound, the TGI in the assay on BT-549 breast, in the assay on U251 CNS and in the assay with SN12C renal was greater than 100 µM in each case.
Take `Cc1ccc(/C=C2/N=C(N/N=C\c3ccccc3)NC2=O)cc1`: the TGI with SF-295 CNS is greater than 100 µM; in the assay with MDA-MB-231 breast it was greater than 100 µM; in the assay on NCI/ADR-RES ovarian, greater than 100 µM; with 786-0 renal it was 55.6 µM; with SR leukemia, greater than 100 µM; in the assay with BT-549 breast, greater than 100 µM. The values for the TGI in the assay with U251 CNS and in the assay on SN12C renal were 89.6 µM and greater than 100 µM, respectively.
For `Cc1c(O)c(=O)ccn1CCc1ccc(O)cc1`, the TGI with SF-295 CNS is greater than 100 µM; in the assay on MDA-MB-231 breast, 50.3 µM; in the assay with NCI/ADR-RES ovarian, 59.5 µM; with 786-0 renal it was 27.8 µM; in the assay with SR leukemia, greater than 100 µM; in the assay with HOP-92 NSCLC it was 57 µM. For the same compound, the TGI with BT-549 breast and in the assay on U251 CNS was greater than 100 µM each time.
For the compound `O=C1N(c2ccccc2)C(=S)/C(=C/c2ccc(Cl)cc2)N1c1ccc(Cl)cc1`, the TGI is greater than 100 µM in the assay on SF-295 CNS; 90.5 µM with MDA-MB-231 breast; greater than 100 µM with NCI/ADR-RES ovarian; 64.2 µM in the assay with 786-0 renal; 15.5 µM in the assay with SR leukemia; greater than 100 µM in the assay on BT-549 breast. Further, the TGI is 96.6 µM in the assay with U251 CNS, greater than 100 µM in the assay on A498 renal and greater than 100 µM in the assay with SN12C renal.
Regarding `COCCN1C(=O)C2c3[nH]c4ccccc4c3C3CCC(C(C)(C)C)CC3C2C1=O` (stereo unspecified), the TGI in the assay with SF-295 CNS amounted to 34.5 µM; in the assay on MDA-MB-231 breast, 36.9 µM; in the assay with NCI/ADR-RES ovarian, 42.6 µM; with 786-0 renal it was 31.5 µM; in the assay on SR leukemia, 27 µM; in the assay on BT-549 breast, 35.3 µM. Also, the TGI was 28.9 µM with U251 CNS and 32.9 µM with SN12C renal.
Regarding `COc1cc(/C=N/NC2=NCCN2)ccc1O`, the TGI with SF-295 CNS, with MDA-MB-231 breast, in the assay on NCI/ADR-RES ovarian, in the assay on 786-0 renal, with SR leukemia and in the assay with HOP-92 NSCLC was greater than 100 µM in each case. Also, the TGI with BT-549 breast, in the assay with U251 CNS and with SN12C renal was greater than 100 µM in each case.
